The target in test [1] is T1, Purified recombinant matriptase (Homo sapiens, UniProt Q9Y5Y6).
T1 sequence (Q9Y5Y6 1-855): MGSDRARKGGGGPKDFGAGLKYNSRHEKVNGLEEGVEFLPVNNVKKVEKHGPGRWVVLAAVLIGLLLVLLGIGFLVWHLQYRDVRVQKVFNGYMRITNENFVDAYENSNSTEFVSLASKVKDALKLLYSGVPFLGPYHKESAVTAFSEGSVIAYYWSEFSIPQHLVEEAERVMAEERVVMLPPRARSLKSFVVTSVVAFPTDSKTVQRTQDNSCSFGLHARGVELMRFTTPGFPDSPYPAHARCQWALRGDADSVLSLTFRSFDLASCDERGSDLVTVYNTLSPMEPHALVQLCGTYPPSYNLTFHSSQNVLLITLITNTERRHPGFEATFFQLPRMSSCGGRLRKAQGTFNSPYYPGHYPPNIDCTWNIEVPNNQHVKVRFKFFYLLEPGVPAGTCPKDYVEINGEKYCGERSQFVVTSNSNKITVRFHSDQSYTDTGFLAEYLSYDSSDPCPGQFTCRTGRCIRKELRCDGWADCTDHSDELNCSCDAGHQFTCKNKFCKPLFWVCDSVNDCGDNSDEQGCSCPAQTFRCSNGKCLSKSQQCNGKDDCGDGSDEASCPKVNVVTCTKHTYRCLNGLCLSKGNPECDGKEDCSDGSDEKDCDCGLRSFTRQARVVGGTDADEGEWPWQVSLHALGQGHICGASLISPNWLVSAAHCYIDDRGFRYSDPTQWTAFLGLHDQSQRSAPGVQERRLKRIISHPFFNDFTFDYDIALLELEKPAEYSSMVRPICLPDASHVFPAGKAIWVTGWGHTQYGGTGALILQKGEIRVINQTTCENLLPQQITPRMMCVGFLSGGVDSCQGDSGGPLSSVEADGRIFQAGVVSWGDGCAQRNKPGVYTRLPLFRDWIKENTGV
The test can be described thus: Matriptase fluorescence-based enzymatic assay (Boc-Gln-Ala-Arg-AMC cleavage). The test is classed as biochemical. The source says:
(§1) Purified recombinant matriptase was used in a fluorescence-based screening assay using Gln-Ala-Arg peptide as a substrate. In this assay the cleavage of AMC from Boc-Gln-Ala-Arg-7-amido-4 methylcoumarin hydrochloride (Boc-Gln-Ala-Arg-AMC) (Sigma, USA) was monitored by measuring the increase in fluorescence intensity of AMC released upon proteolytic cleavage at 480 nm (kex=360 nm). Similarly, enzymatic assays in fluorimetric or colorimetric format for uPA, Factor Xa, thrombin, plasmin and trypsin (Sigma, USA) were established using substrates pyroGlu-Gly-Arg-pNA.HCl, Boc-Gln-Ala-Arg-AMC, CH3OCO-D-CHA-Gly-Arg-PNA.AcoH, Pyro Glu-Phe-Lys—pNA.HCl and Boc-Gln-Ala-Arg-AMC, respectively.

A further test has as its target T2, uPA (Homo sapiens, UniProt P00749).
T2 construct: purchased Sigma, USA
The test can be described thus: uPA enzymatic assay (selectivity screening). The test is classed as biochemical. The settings on record: for uPA Inhibition (%): % Inhibition at 5 μM.
Excerpt: as §1

A further test concerns the target T3, Factor Xa (Homo sapiens, UniProt P00742).
T3 construct: uPA, Factor Xa, thrombin, plasmin and trypsin (Sigma, USA); purchased Sigma, USA
The test can be described thus: Factor Xa enzymatic assay (selectivity screening). The test is classed as biochemical. The settings on record: for Factor Xa Inhibition (%): % Inhibition at 5 μM.
Excerpt: as §1

Another test has as its target T4, thrombin (Homo sapiens, UniProt P00734).
T4 construct: uPA, Factor Xa, thrombin, plasmin and trypsin (Sigma, USA); purchased Sigma, USA
The test can be described thus: Thrombin enzymatic assay (selectivity screening). The test is classed as biochemical. The settings on record: for Thrombin Inhibition (%): % Inhibition at 5 μM.
Excerpt: as §1

In a further test the target is T5, plasmin (Homo sapiens, UniProt P00747).
T5 construct: uPA, Factor Xa, thrombin, plasmin and trypsin (Sigma, USA); purchased Sigma, USA
The test can be described thus: Plasmin enzymatic assay (selectivity screening). The test is classed as biochemical. The settings on record: for Plasmin Inhibition (%): % Inhibition at 5 μM.
Excerpt: as §1

A further test deals with trypsin. Briefly: Trypsin enzymatic assay (selectivity screening). The test is classed as biochemical. The settings on record: % Inhibition at 5 μM.
Excerpt: as §1

In test [2] the test system is DU145 cells. Briefly: Cytotoxicity, Calcein AM assay, DU145. The test is classed as cell-based. The note with it: four days of incubation; for viability at 10 µM: Homo sapiens, DU-145, 96 h, read-out: Cell survival at 10 μM (%). The protocol:
Cytotoxicity of the compounds was tested in cell lines or primary cells using Calcein AM assay. This assay measures cell viability by quantitation of cleaved fluorescent product of a cell permeable substrate that is retained in the cytoplasm of cells with uncompromised cytoplasmic membrane integrity. The cells were seeded into 96-well plate and allowed to adhere for a day followed by addition of compound at several different concentrations. After four days of incubation with the compound, media was removed from the cells followed by addition of PBS and addition of Calcein AM reagent at 1 μM final concentration. The cells were then allowed to incubate at 37° C. for half an hour followed by reading on the fluorimeter. Percent viability was calculated based on fluorescence value obtained at 485/520 nm with cut off at 495 nm.

Test [3] deals with DU145 cells. Briefly: Migration assay in transwell chambers. The test is classed as cell-based. The note with it: for inhibition at 10 µM: Homo sapiens, DU-145, 24 hours. The protocol: Migration assays were performed to determine the effect of matriptase inhibitors on cell motility. Cells were seeded with 10 μM test compound into transwell chambers and allowed to migrate for 24 hours using a combination of 10% FBS and 5 μg/ml fibronectin as chemoattractant.

Test [4] relates to DU145 cells. The test can be described thus: Cell invasion assay (matrigel transwell). The note with it: for inhibition at 10 µM: Homo sapiens, DU-145, 48 hours. The test is classed as cell-based. The protocol: Cell invasion assays were done for quantitating the degree to which invasive cells penetrate a barrier essentially as in migration assay but with the use of matrigel consisting of basement membrane components in the transwell inserts and incubating for 48 hours. The barrier used was matrigel. This was followed by fixing and staining of the transwell insert with 0.5% crystal violet in 25% methanol in order to visualize cells migrated.

Where [5] appears, read: Table 1, read-out: Matriptase Inhibition IC50.
The mark [6] stands for this setting: Table 2, read-out: Matriptase IC50.

In general, IC50 refers to the concentration needed to halve the response being measured. As usually defined, the inhibition is how much of the control response was suppressed.

Like-named read-outs stand apart in the source and are kept apart here.

T3 sequence (P00742 235-488 limits assumed): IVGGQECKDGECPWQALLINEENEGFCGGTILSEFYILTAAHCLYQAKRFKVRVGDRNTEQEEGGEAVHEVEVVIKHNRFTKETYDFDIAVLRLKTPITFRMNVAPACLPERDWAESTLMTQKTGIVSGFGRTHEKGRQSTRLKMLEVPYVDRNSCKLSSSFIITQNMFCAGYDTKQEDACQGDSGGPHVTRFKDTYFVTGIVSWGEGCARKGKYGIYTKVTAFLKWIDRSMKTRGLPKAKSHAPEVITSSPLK
T3 sequence (P00742 41-179 partner limits assumed): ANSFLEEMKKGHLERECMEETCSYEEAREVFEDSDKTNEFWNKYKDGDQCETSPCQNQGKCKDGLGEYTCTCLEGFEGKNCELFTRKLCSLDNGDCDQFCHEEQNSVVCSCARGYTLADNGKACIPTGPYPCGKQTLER
T5 sequence (P00747 581-810 limits assumed, species assumed): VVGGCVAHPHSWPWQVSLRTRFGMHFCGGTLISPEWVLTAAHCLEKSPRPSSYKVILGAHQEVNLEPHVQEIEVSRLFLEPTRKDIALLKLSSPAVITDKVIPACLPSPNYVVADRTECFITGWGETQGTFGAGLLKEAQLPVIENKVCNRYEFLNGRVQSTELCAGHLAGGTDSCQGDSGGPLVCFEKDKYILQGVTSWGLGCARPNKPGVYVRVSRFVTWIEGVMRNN
T5 sequence (P00747 97-580 partner limits assumed, species assumed): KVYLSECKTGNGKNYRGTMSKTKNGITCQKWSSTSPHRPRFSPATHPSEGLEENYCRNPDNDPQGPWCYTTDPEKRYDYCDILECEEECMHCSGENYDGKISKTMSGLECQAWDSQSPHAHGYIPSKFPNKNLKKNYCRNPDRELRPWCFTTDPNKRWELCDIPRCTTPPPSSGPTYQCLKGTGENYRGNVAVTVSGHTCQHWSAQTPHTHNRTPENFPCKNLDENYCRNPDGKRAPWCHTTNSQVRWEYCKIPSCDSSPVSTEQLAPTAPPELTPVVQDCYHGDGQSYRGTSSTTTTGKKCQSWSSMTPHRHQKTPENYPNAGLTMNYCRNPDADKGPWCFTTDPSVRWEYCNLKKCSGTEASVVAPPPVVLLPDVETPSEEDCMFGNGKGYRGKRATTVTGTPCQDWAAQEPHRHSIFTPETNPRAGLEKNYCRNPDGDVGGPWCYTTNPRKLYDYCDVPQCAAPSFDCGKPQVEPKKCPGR

On to `N=C(N)c1ccc(Oc2cc(Oc3ccc(C(=N)N)cc3)cc(C(=O)OC3CCC(N)CC3)c2)cc1` (centres unmarked) [Example 103, 3,5-Bis-(4-carbamimidoyl-phenoxy)-benzoic acid 4-amino-cyclohexyl Ester], for which, in [1] (setting [5]), the IC50 worked out at 2 nM. For the same compound, the inhibition at 5 µM on uPA was found to be 25%; against Factor Xa, 92%; against thrombin, 44%; on plasmin, 58%. In the test with trypsin, the “Trypsin Inhibition (%)” value is 92%.
Take “2-[3,5-Bis-(4-carbanimidoyl-phenoxy)-benzoyl]-nonahydro-isoquinoline [Example 37]”: in test [1] (setting [5]), the IC50 was determined as 479 nM. For the same compound, the “uPA Inhibition (%)” value on uPA came out at 13%. Further, on Factor Xa, the “Factor Xa Inhibition (%)” value is listed as 67%. Also, the “Thrombin Inhibition (%)” value at thrombin was determined as 74%. Further, at plasmin, the “Plasmin Inhibition (%)” value came to 65%. The “Trypsin Inhibition (%)” value in the test on trypsin came out at 84%.
Regarding `Cc1cc(Oc2cc(Oc3ccc(C(=N)N)cc3)cc(C(=O)NC3CCC(N)CC3)c2)ccc1C(=N)N` (centres unmarked) [Example 74, N-(4-Aminocyclohexyl)-3-(4-carbamimidoyl-3-methylphenoxy)-5-(4-carbamimidoylphenoxy)benzamide], the IC50 in [1] (setting [5]) came out at 13.2 nM; in test [1] (setting [6]), 13 nM. The inhibition at 5 µM stood at 11% against uPA, 86% at Factor Xa, 33% at thrombin and 10% at plasmin. The “Trypsin Inhibition (%)” value in the test on trypsin is given as 28%. Besides, the viability at 10 µM in the test with DU145 cells [2] is 95%. In addition, the inhibition at 10 µM in the test with DU145 cells [3] came out at 18%; with DU145 cells [4] it was 45%.
For `N=C(N)c1ccc(Oc2cc(Oc3ccc(CN)cc3)cc(C(=O)NC3CCC(N)CC3)c2)cc1` (centres unmarked) [Example 84, N-(4-Aminocyclohexyl)-3-(4-aminomethylphenoxy)-5-(4-carbamimidoylphenoxy)benzamide], the IC50 in [1] (setting [5]) is 63.4 nM; in [1] (setting [6]) it was 63 nM. In addition, the inhibition at 5 µM against uPA came out at 5%; against Factor Xa, 5%; on thrombin it was 36%; against plasmin it was 10%. Besides, the viability at 10 µM with DU145 cells [2] was 100%. In addition, the results for the inhibition at 10 µM with DU145 cells [3] and in the test on DU145 cells [4] were 80% and 92%, respectively.
Regarding `N=C(N)c1ccc(Oc2cc(OCc3cccc(C(=N)N)c3)cc(C(=O)N3CCC(CCN)CC3)c2)cc1` [Example 57, 2-{1-[3-(3-Carbamimidoyl-benzyloxy)-5-(4-carbamimidoyl-phenoxy)-benzoyl]-piperidin-4-yl}-ethylamine], the IC50 in test [1] (setting [5]) was 29 nM. Besides, the inhibition at 5 µM is 10% against uPA, 94% at Factor Xa, 57% against thrombin and 50% against plasmin. Besides, the “Trypsin Inhibition (%)” value in the test on trypsin was 74%.
Consider `N=C(N)c1ccc(Oc2cc(NC(=O)C3CCN(CCO)CC3)cc(Oc3ccc(C(=N)N)cc3)c2)cc1` [Example 111, 1-(2-Hydroxy-ethyl)-piperidine-4-carboxylic acid[3,5-bis-(4-carbamimidoyl-phenoxy)-phenyl]-amide], for which, in [1] (setting [5]), the IC50 came to 29 nM. The “uPA Inhibition (%)” value on uPA was 17%. For the same compound, the “Factor Xa Inhibition (%)” value at Factor Xa was 74%. For the same compound, at thrombin, the “Thrombin Inhibition (%)” value is on record as 44%. Moreover, at plasmin, the “Plasmin Inhibition (%)” value was 46%. Further, in the test with trypsin, the “Trypsin Inhibition (%)” value amounted to 63%.
With `N=C(N)CCCCCOc1cc(Oc2ccc(C(=N)N)cc2)cc(C(=O)NC2CCC(N)CC2)c1` (centres unmarked) [Example 66, N-(4-Aminocyclohexyl)-3-(5-carbamimidoylpentyloxy)-5-(4-carbamimidoyl-phenoxy)-benzamide], the IC50 was found to be 16.1 nM in test [1] (setting [5]) and 16 nM in test [1] (setting [6]). For the same compound, the inhibition at 5 µM at uPA was 3%; at Factor Xa, 43%; against thrombin it was 21%; against plasmin it was 5%. The viability at 10 µM in the test with DU145 cells [2] is 87%. Also, the inhibition at 10 µM in the test with DU145 cells [3] worked out at 88%; in the test with DU145 cells [4], 95%.
As to `N=C(N)c1cc(F)c(Oc2cc(Oc3ccc(CN)cc3)cc(C(=O)NC3CCC(N)CC3)c2)c(F)c1` (centres unmarked) [Example 87, N-(4-Amino-cyclohexyl)-3-(4-aminomethyl-phenoxy)-5-(4-carbamimidoyl-2,6-difluoro-phenoxy)-benzamide], in [1] (setting [6]), the IC50 is 158 nM. Also, the viability at 10 µM in the test on DU145 cells [2] was 113%. For the same compound, the inhibition at 10 µM came to 47% with DU145 cells [3] and 88% in the test on DU145 cells [4].
For the compound “1-[3,5-Bis-(4-carbanimidoyl-phenoxy)-benzoyl]-nonahydro-quinoline [Example 35]”, the IC50 was 313 nM in test [1] (setting [5]) and 312 nM in test [1] (setting [6]). Moreover, the “uPA Inhibition (%)” value at uPA was found to be 10%. Also, the “Factor Xa Inhibition (%)” value on Factor Xa is on record as 69%. Moreover, the “Thrombin Inhibition (%)” value at thrombin is on record as 67%. The “Plasmin Inhibition (%)” value at plasmin is 69%. For the same compound, in the test on DU145 cells [2], the “Cell survival at 10 μM (%)” value is given as 78%. In addition, the “Inhibition of migration at 10 μM (%)” value with DU145 cells [3] (24 hours) is listed as 18%. The “Inhibition of invasion at 10 μM (%)” value in the test with DU145 cells [4] (48 hours) came to 75%.
`N=C(N)c1cccc(COc2cc(NC(=O)C3CCC(N)CC3)cc(OCc3cccc(C(=N)N)c3)c2)c1` (centres unmarked) [Example 119, 4-Amino-cyclohexanecarboxylic acid[3,5-bis-(3-carbamimidoyl-benzyloxy)-phenyl]-amide]: the IC50 in test [1] (setting [5]) amounted to 7 nM. In addition, the “uPA Inhibition (%)” value at uPA amounted to 14%. The “Factor Xa Inhibition (%)” value on Factor Xa is listed as 97%. Moreover, on thrombin, the “Thrombin Inhibition (%)” value is given as 47%. In addition, at plasmin, the “Plasmin Inhibition (%)” value is on record as 30%. Besides, the “Trypsin Inhibition (%)” value in the test with trypsin stood at 77%.
As to `N=C(N)c1ccc(Oc2cc(NC(=O)[C@H]3CC[C@H](N)CC3)cc(Oc3ccc(C(=N)N)cc3)c2)cc1` [Example 108, Trans-4-amino-cyclohexanecarboxylic Acid[3,5-bis-(4-carbamimidoyl-phenoxy)-phenyl]-amide], the half-maximal inhibitory concentration (IC50) in [1] (setting [5]) came to 4 nM. Also, the “uPA Inhibition (%)” value on uPA amounted to 23%. The “Factor Xa Inhibition (%)” value on Factor Xa is 81%. For the same compound, the “Thrombin Inhibition (%)” value on thrombin turned out to be 49%. Also, at plasmin, the “Plasmin Inhibition (%)” value is listed as 61%. Further, the “Trypsin Inhibition (%)” value with trypsin came out at 76%.
As for `N=C(N)CCCCOc1cc(Oc2ccc(C(=N)N)cc2)cc(C(=O)NC2CCC(N)CC2)c1` (centres unmarked) [Example 65, N-(4-Aminocyclohexyl)-3-(4-carbamimidoylbutoxy)-5-(4-carbamimidoyl-phenoxy)-benzamide], the figures for the IC50 in test [1] (setting [5]) and in [1] (setting [6]) were 16.8 nM and 16 nM, respectively. The inhibition at 5 µM at uPA came to 4%; against Factor Xa, 63%; at thrombin it was 27%; on plasmin, 5%. Moreover, the viability at 10 µM in the test with DU145 cells [2] was 96%. Moreover, the inhibition at 10 µM with DU145 cells [3] amounted to 7%; in the test on DU145 cells [4] it was 88%.

Source of the values: patent publication US8722930B2, “Protease inhibitors” (Orion Corporation, priority 2009, dated 2014).
